Laboratory results from ChEMBL document CHEMBL4373676, “Non-lethal growth inhibition by arresting the starch utilization system of clinically relevant human isolates of Bacteroides dorei” (Medchemcomm, 2019).
Active and inactive are the calls of the source. The rule behind the calls is not given here.

Legend:
[1] = Inhibition of starch utilization system in Bacteroides dorei JRO3 assessed as bacterial growth at 1 uM after 14 hrs in presence of potato starch by spectrophotometric analysis relative to untreated control; set-up: scale not given: the % may be the effect or the level left; details: Phocaeicola dorei
Phocaeicola dorei [2] = assay: Effect on growth of Bacteroides dorei JRO2 assessed as microbial growth at 100 uM measured at 30 mins interval with 15 secs shaking for up to 48 hrs in presence of glucose by spectrophotometric analysis relative to untreated control; format: organism-based; details: in vivo
[3] = Inhibition of starch utilizing system in Bacteroides dorei JRO1 assessed as microbial growth at 100 uM measured at 30 mins interval with 15 secs shaking for up to 48 hrs in presence of pullulan by spectrophotometric analysis relative to untreated control; set-up: scale not given: the % may be the effect or the level left; details: Phocaeicola dorei
[4] = Inhibition of starch utilization system in Bacteroides dorei JRO3 assessed as bacterial growth at 5 uM after 13.5 hrs in presence of pullulan by spectrophotometric analysis relative to untreated control; set-up: scale not given: the % may be the effect or the level left; details: Phocaeicola dorei
Phocaeicola dorei [5] = assay: Effect on growth of Bacteroides dorei JRO3 assessed as microbial growth at 100 uM measured at 30 mins interval with 15 secs shaking for up to 48 hrs in presence of maltose by spectrophotometric analysis relative to untreated control; format: organism-based; details: in vivo
[6] = Inhibition of starch utilization system in Bacteroides dorei JRO3 assessed as bacterial growth at 0.5 uM after 13.5 hrs in presence of pullulan by spectrophotometric analysis relative to untreated control; set-up: scale not given: the % may be the effect or the level left; details: Phocaeicola dorei
[7] = Inhibition of starch utilization system in Bacteroides dorei JRO3 assessed as bacterial growth at 0.5 uM after 14 hrs in presence of potato starch by spectrophotometric analysis relative to untreated control; set-up: scale not given: the % may be the effect or the level left; details: Phocaeicola dorei
[8] = Inhibition of starch utilization system in Bacteroides dorei JRO3 assessed as bacterial growth at 1 uM after 13.5 hrs in presence of pullulan by spectrophotometric analysis relative to untreated control; set-up: scale not given: the % may be the effect or the level left; details: Phocaeicola dorei
[9] = Inhibition of starch utilizing system in Bacteroides dorei JRO1 assessed as microbial growth at 100 uM measured at 30 mins interval with 15 secs shaking for up to 48 hrs in presence of potato starch by spectrophotometric analysis relative to untreated control; set-up: scale not given: the % may be the effect or the level left; details: Phocaeicola dorei
[10] = Inhibition of starch utilizing system in Bacteroides dorei JRO2 assessed as microbial growth at 100 uM measured at 30 mins interval with 15 secs shaking for up to 48 hrs in presence of potato starch by spectrophotometric analysis relative to untreated control; set-up: scale not given: the % may be the effect or the level left; details: Phocaeicola dorei
[11] = Inhibition of starch utilization system in Bacteroides dorei JRO3 assessed as increase in doubling time at 0.1 to 10 uM in presence of potato by spectrophotometric analysis; details: Phocaeicola dorei
[12] = Inhibition of starch utilization system in Bacteroides dorei JRO3 assessed as increase in lag time at 0.1 to 10 uM up to 48 hrs in presence of potato starch by spectrophotometric analysis; details: Phocaeicola dorei
Phocaeicola dorei [13] = assay: Effect on growth of Bacteroides dorei JRO4 assessed as microbial growth at 100 uM measured at 30 mins interval with 15 secs shaking for up to 48 hrs in presence of maltose by spectrophotometric analysis relative to untreated control; format: organism-based; details: in vivo
[14] = Inhibition of starch utilization system in Bacteroides dorei JRO3 assessed as bacterial growth at 5 uM after 14 hrs in presence of potato starch by spectrophotometric analysis relative to untreated control; set-up: scale not given: the % may be the effect or the level left; details: Phocaeicola dorei
Phocaeicola dorei [15] = assay: Effect on growth of Bacteroides dorei JRO1 assessed as microbial growth at 100 uM measured at 30 mins interval with 15 secs shaking for up to 48 hrs in presence of maltose by spectrophotometric analysis relative to untreated control; format: organism-based; details: in vivo
Phocaeicola dorei [16] = assay: Effect on growth of Bacteroides dorei JRO1 assessed as microbial growth at 100 uM measured at 30 mins interval with 15 secs shaking for up to 48 hrs in presence of glucose by spectrophotometric analysis relative to untreated control; format: organism-based; details: in vivo
[17] = Inhibition of starch utilizing system in Bacteroides dorei JRO4 assessed as microbial growth at 100 uM measured at 30 mins interval with 15 secs shaking for up to 48 hrs in presence of potato starch by spectrophotometric analysis relative to untreated control; set-up: scale not given: the % may be the effect or the level left; details: Phocaeicola dorei
[18] = Inhibition of starch utilization system in Bacteroides dorei JRO3 assessed as increase in lag time at 5 uM up to 48 hrs in presence of pullulan by spectrophotometric analysis; details: Phocaeicola dorei
Phocaeicola dorei [19] = assay: Effect on growth of Bacteroides dorei JRO3 assessed as microbial growth at 100 uM measured at 30 mins interval with 15 secs shaking for up to 48 hrs in presence of glucose by spectrophotometric analysis relative to untreated control; format: organism-based; details: in vivo
[20] = Inhibition of starch utilizing system in Bacteroides dorei JRO3 assessed as microbial growth at 100 uM measured at 30 mins interval with 15 secs shaking for up to 48 hrs in presence of potato starch by spectrophotometric analysis relative to untreated control; set-up: scale not given: the % may be the effect or the level left; details: Phocaeicola dorei
[21] = Inhibition of starch utilization system in Bacteroides dorei JRO3 assessed as increase in doubling time at 10 uM in presence of pullulan by spectrophotometric analysis; details: Phocaeicola dorei
Phocaeicola dorei [22] = assay: Effect on growth of Bacteroides dorei JRO2 assessed as microbial growth at 100 uM measured at 30 mins interval with 15 secs shaking for up to 48 hrs in presence of maltose by spectrophotometric analysis relative to untreated control; format: organism-based; details: in vivo
[23] = Inhibition of starch utilizing system in Bacteroides dorei JRO4 assessed as microbial growth at 100 uM measured at 30 mins interval with 15 secs shaking for up to 48 hrs in presence of pullulan by spectrophotometric analysis relative to untreated control; set-up: scale not given: the % may be the effect or the level left; details: Phocaeicola dorei
[24] = Inhibition of starch utilizing system in Bacteroides dorei JRO2 assessed as microbial growth at 100 uM measured at 30 mins interval with 15 secs shaking for up to 48 hrs in presence of pullulan by spectrophotometric analysis relative to untreated control; set-up: scale not given: the % may be the effect or the level left; details: Phocaeicola dorei
[25] = Inhibition of starch utilization system in Bacteroides dorei JRO3 assessed as reduction in bacterial growth at 0.1 uM after 14 hrs in presence of potato starch by spectrophotometric analysis; details: Phocaeicola dorei
[26] = Inhibition of starch utilization system in Bacteroides dorei JRO3 assessed as reduction in bacterial growth at 0.1 uM after 13.5 hrs in presence of pullulan by spectrophotometric analysis; details: Phocaeicola dorei
Phocaeicola dorei [27] = assay: Effect on growth of Bacteroides dorei JRO4 assessed as microbial growth at 100 uM measured at 30 mins interval with 15 secs shaking for up to 48 hrs in presence of glucose by spectrophotometric analysis relative to untreated control; format: organism-based; details: in vivo
[28] = Inhibition of starch utilizing system in Bacteroides dorei JRO3 assessed as microbial growth at 100 uM measured at 30 mins interval with 15 secs shaking for up to 48 hrs in presence of pullulan by spectrophotometric analysis relative to untreated control; set-up: scale not given: the % may be the effect or the level left; details: Phocaeicola dorei

Activity [1]: 28.2%
Activity (Phocaeicola dorei [2]): 100%
Activity [3]: 6.5%
Activity [4]: 11.2%
Activity (Phocaeicola dorei [5]): 123.3%
Activity [6]: 49.9%
Activity [7]: 59.9%
Activity [8]: 21.3%
Activity [9]: 3.9%
Activity [10]: 3.7%
inhibition [11]: Active
inhibition [12]: inactive
Activity (Phocaeicola dorei [13]): 71.8%
Activity [14]: 6.6%
Activity (Phocaeicola dorei [15]): 103%
Activity (Phocaeicola dorei [16]): 100.7%
Activity [17]: 2.4%
inhibition [18]: Active
Activity (Phocaeicola dorei [19]): 118.7%
Activity [20]: 2.6%
inhibition [21]: Active
Activity (Phocaeicola dorei [22]): 99.4%
Activity [23]: 4.8%
Activity [24]: 10.1%
inhibition [25]: inactive
inhibition [26]: inactive
Activity (Phocaeicola dorei [27]): 105.8%
Activity [28]: 10.4%
Compound: C[C@H]1O[C@H](O[C@H]2[C@H](O)[C@@H](O)[C@@H](O[C@H]3[C@H](O)[C@@H](O)C(O)O[C@@H]3CO)O[C@@H]2CO)[C@H](O)[C@@H](O)[C@@H]1N[C@H]1C=C(CO)[C@@H](O)[C@H](O)[C@H]1O (stereo partly drawn) [ACARBOSE]
